As usually defined, the pEC50 is −log10 of the EC50, conventionally taken in molar units.

pEC50, pIC50: −log10 of the molar value.

This note sets out measurements from patent US12071443B2, “Prolyl hydroxylase domain-containing protein (PHD) inhibitors and uses thereof” (Insilico Medicine IP Limited, priority 2021, dated 2024).

Assay [1] has as its system Caco2-HIF1α-HiBiT-clone-1 cells. In words: Caco-2 HIF1α-HiBiT assay. Format: cell-based. Conditions: Homo sapiens, Caco-2; Caco2-HIF1α-HiBiT-clone-1 cells, 6 h incubation, luminescence; read-out: Caco2-HIF1α-HiBit assay - EC50. For orientation: With HiBiT, luminescence reflects the tagged protein that the partner subunit can reach.
For the next assay, the target named is PHD2 (Homo sapiens, UniProt Q9GZT9). The experiment in a line: PHD2 enzymatic assay (AlphaScreen). Conditions: PHD2 enzyme, AlphaScreen, IC50 from % inhibition; read-out: PHD2. It counts as biochemical. On the technique in general: Bead proximity is the source of the signal in Alpha formats.
PHD2, sequence (Q9GZT9 whole entry): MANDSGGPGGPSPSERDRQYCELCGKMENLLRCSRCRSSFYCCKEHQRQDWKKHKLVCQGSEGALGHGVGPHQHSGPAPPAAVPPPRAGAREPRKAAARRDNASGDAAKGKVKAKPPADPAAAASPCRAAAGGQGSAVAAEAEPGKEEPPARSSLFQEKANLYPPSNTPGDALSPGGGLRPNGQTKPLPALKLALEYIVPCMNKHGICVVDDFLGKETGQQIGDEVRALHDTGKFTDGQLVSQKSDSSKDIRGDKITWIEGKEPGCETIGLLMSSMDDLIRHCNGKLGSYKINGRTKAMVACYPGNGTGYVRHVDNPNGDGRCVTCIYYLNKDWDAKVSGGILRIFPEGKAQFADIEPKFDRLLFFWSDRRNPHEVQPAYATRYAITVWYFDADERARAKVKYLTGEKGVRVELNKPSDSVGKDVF

Take `N#Cc1ccc(CNC(=O)c2ncc3nc(N4CCNCC4)ccc3c2O)c(Cl)c1` [Example 5, N-(2-chloro-4-cyanobenzyl)-5-hydroxy-2-(piperazin-1-yl)-1,7-naphthyridine-6-carboxamide]: the pEC50 in assay [1] was 5.00 to 5.12. Moreover, the pIC50 at PHD2 is 7.70 to 8.30.
The like results for `CC1(OC(=O)N2CCN(c3ccc4c(O)c(C(=O)NCc5ccc(C#N)nc5)ncc4n3)CC2)CC1` [Example 137] were, in that order, more than 5.60 and more than 8.30.
Take `N#Cc1ccc(COC(=O)c2ncc3nc(N4CC[C@@H](O)C4)ccc3c2O)cn1` [Example 15, (6-cyanopyridin-3-yl)methyl (R)-5-hydroxy-2-(3-hydroxypyrrolidin-1-yl)-1,7-naphthyridine-6-carboxylate]: the negative logarithm of the EC50 (pEC50) in assay [1] was 4.00 to 5.00. Besides, at PHD2, the pIC50 is 4.00 to 6.00.
For `COCCN1CCN(c2ccc3c(O)c(C(=O)NCc4ccc(C#N)nc4)ncc3n2)CC1` [Example 75] the same measures were 5.12 to 5.30 and more than 8.30.
In the case of `COCCC(=O)N1CCN(c2ccc3c(O)c(C(=O)NCc4ccc(C#N)nc4)ncc3n2)CC1` [Example 73, N-((6-cyanopyridin-3-yl)methyl)-5-hydroxy-2-(4-(3-methoxypropanoyl)piperazin-1-yl)-1,7-naphthyridine-6-carboxamide], in assay [1], the pEC50 was 5.12 to 5.30. Also, the pIC50 at PHD2 was more than 8.30.
For `CC(C)(C)OC(=O)N[C@@H]1CN(c2ccc3c(O)c(C(=O)NCc4ccc(C#N)nc4)ncc3n2)C[C@@H]1F` [Example 142] the same measures were 5.30 to 5.60 and 7.70 to 8.30.
For `COc1cc(C#N)ncc1CNC(=O)c1ncc2nc(N3CCOCC3)ccc2c1O` [Example 32] the same measures were 4.00 to 5.00 and more than 8.30.
For `Cc1cc(C#N)ncc1CNC(=O)c1ncc2nc(N3CCOCC3)ccc2c1O` [Example 20] the same measures were 5.30 to 5.60 and more than 8.30.
`N#Cc1ccc(CNC(=O)c2ncc3nc(N4CCN(C5CC5)CC4)ccc3c2O)c(Cl)c1` [Example 4]: the pEC50 in assay [1] is 4.00 to 5.00. The pIC50 on PHD2 is 7.70 to 8.30.
The like results for `N#Cc1ccc(CNC(=O)c2ncc3nc(N4CC[C@@H](O)C4)ccc3c2O)c(Cl)c1` [Example 6, (R)—N-(2-chloro-4-cyanobenzyl)-5-hydroxy-2-(3-hydroxypyrrolidin-1-yl)-1,7-naphthyridine-6-carboxamide] were, in that order, 5.30 to 5.60 and 7.70 to 8.30.
For `C[C@H](NC(=O)c1ncc2nc(N3CCOCC3)ccc2c1O)c1ccc(C#N)cc1` [Example 17] the same measures were 4.00 to 5.00 and 4.00 to 6.00.
The like results for `CC(C)(C)OC(=O)NC1CN(c2ccc3c(O)c(C(=O)NCc4ccc(C#N)nc4)ncc3n2)C1` [Example 127] were, in that order, more than 5.60 and more than 8.30.
Turning to `N#Cc1ccc(CNC(=O)c2ncc3nc(N4CCOC4=O)ccc3c2O)cn1` [Example 103], in assay [1], the negative-log EC50 (pEC50) was 5.30 to 5.60. Moreover, the pIC50 at PHD2 was more than 8.30.
The like results for `N#Cc1ccc(CNC(=O)c2ncc3nc(N4CCN(C(=O)CCO)CC4)ccc3c2O)cn1` [Example 72, N-((6-cyanopyridin-3-yl)methyl)-5-hydroxy-2-(4-(3-hydroxypropanoyl)piperazin-1-yl)-1,7-naphthyridine-6-carboxamide] were, in that order, 5.12 to 5.30 and more than 8.30.
The like results for `CC(C)(C)OC(=O)NC1CCN(c2ccc3c(O)c(C(=O)NCc4ccc(C#N)nc4)ncc3n2)CC1` [Example 123] were, in that order, 5.30 to 5.60 and more than 8.30.
For `C[C@H]1CN(C(=O)OC(C)(C)C)CCN1c1ccc2c(O)c(C(=O)NCc3ccc(C#N)nc3)ncc2n1` [Example 139] the same measures were 5.30 to 5.60 and more than 8.30.
Take `COC(=O)[C@H]1CN(c2ccc3c(O)c(C(=O)NCc4ccc(C#N)nc4)ncc3n2)CCN1` [Example 50, methyl (R)-4-(6-(((6-cyanopyridin-3-yl)methyl)carbamoyl)-5-hydroxy-1,7-naphthyridin-2-yl)piperazine-2-carboxylate]: the pEC50 in assay [1] was 4.00 to 5.00. In addition, at PHD2, the pIC50 was more than 8.30.
The like results for `N#Cc1ccc(CNC(=O)c2ncc3nc(N4CC[C@H](N)C4)ccc3c2O)cn1` [Example 126, (S)-2-(3-aminopyrrolidin-1-yl)-N-((6-cyanopyridin-3-yl)methyl)-5-hydroxy-1,7-naphthyridine-6-carboxamide] were, in that order, 4.00 to 5.00 and more than 8.30.
For `C[C@@H]1CN(c2ccc3c(O)c(C(=O)NCc4ccc(C#N)nc4)ncc3n2)CCN1C(=O)OC(C)(C)C` [Example 149] the same measures were 5.30 to 5.60 and more than 8.30.
In the case of `CC(C)(C)OC(=O)N[C@@H]1CCN(c2ccc3c(O)c(C(=O)NCc4ccc(C#N)nc4)ncc3n2)C1` [Example 140], in assay [1], the pEC50 was 5.30 to 5.60. Also, the pIC50 on PHD2 is 7.70 to 8.30.
For `N#Cc1ccc(CNC(=O)c2ncc3nc(N4CCC(C(=O)OC5CC5)CC4)ccc3c2O)cn1` [Example 96] the same measures were 4.00 to 5.00 and more than 8.30.
`N#Cc1ccc(CNC(=O)c2ncc3nc(N4CCOCC4=O)ccc3c2O)cn1` [Example 100]: the pEC50 in assay [1] is 5.00 to 5.12. Further, the pIC50 at PHD2 was 7.70 to 8.30.
Regarding `COC(=O)[C@H]1CN(c2ccc3c(O)c(C(=O)NCc4ccc(C#N)nc4)ncc3n2)CCN1C1CC1` [Example 89], the negative-log EC50 (pEC50) in assay [1] is 5.30 to 5.60. Besides, the pIC50 on PHD2 was more than 8.30.
The like results for `N#Cc1ccc(CNC(=O)c2ncc3nc(N4CC[C@H](C(=O)N5CCNCC5)C4)ccc3c2O)cn1` [Example 41, (S)—N-((6-cyanopyridin-3-yl)methyl)-5-hydroxy-2-(3-(piperazine-1-carbonyl)pyrrolidin-1-yl)-1,7-naphthyridine-6-carboxamide] were, in that order, 4.00 to 5.00 and more than 8.30.
For `CC(C)OC(=O)N1CCN(c2ccc3c(O)c(C(=O)NCc4ccc(C#N)nc4)ncc3n2)CC1` [Example 138] the same measures were 5.30 to 5.60 and more than 8.30.
For `COCCOC(=O)C1CCN(c2ccc3c(O)c(C(=O)NCc4ccc(C#N)nc4)ncc3n2)CC1` [Example 86] the same measures were 4.00 to 5.00 and more than 8.30.
`CC(C)(C)OC(=O)NC1CCN(c2ccc3c(O)c(C(=O)NCc4ccc(C#N)nc4)ncc3n2)C1=O` (stereo not shown) [Example 144]: the negative logarithm of the EC50 (pEC50) in assay [1] was 5.30 to 5.60. For the same compound, the pIC50 on PHD2 was 7.70 to 8.30.
In the case of `CC(C)(C)OC(=O)N1CCN(c2ccc3c(O)c(C(=O)NCc4ccc(C#N)nc4)ncc3n2)C(=O)C1` [Example 101], in assay [1], the pEC50 was 5.30 to 5.60. Besides, the pIC50 at PHD2 was more than 8.30.
The like results for `CN1CCN(c2ccc3c(O)c(C(=O)NCc4ccc(C#N)nc4)ncc3n2)CC1=O` [Example 66] were, in that order, 4.00 to 5.00 and more than 8.30.
